{"source": "paper PMC11785709", "about": "“Angelica gigas Nakai (Korean Dang-gui) Root Alcoholic Extracts in Health Promotion and Disease Therapy – active Phytochemicals and In Vivo Molecular Targets” (Pharmaceutical Research, 2025)", "test_in_all_cases": "Reaction Biology kinase activity inhibition", "type_in_all_cases": "biochemical", "settings_in_all_cases": "initial screening", "key": {"[1]": {"molecular_target": "T1, c-MET (Y1235D) (Homo sapiens, UniProt P08581, Y1235D)", "T1 construct": "purchased Reaction Biology", "text": "(§1) The second screening was the Reaction Biology® (Malvern, PA) kinase activity inhibition tests, which screened for more than 600 protein kinases and lipid kinases, using miniaturized radioisotope-based assay platform with γ-^33P-ATP, followed by confirmation with IC50 kinase profiling service with 5 concentrations of test compound (i.e., DOH and DA) with curve fitting."}, "[2]": {"molecular_target": "T2, IRAK1 (Homo sapiens, UniProt P51617)", "T2 construct": "purchased Reaction Biology", "text": "as §1"}, "[3]": {"tested_on": "PKN1-TECR (Tex1Pex10)", "text": "as §1"}, "[4]": {"molecular_target": "T3, LRRK2 (G2019S) (Homo sapiens, UniProt Q5S007, G2019S)", "T3 construct": "purchased Reaction Biology", "T3 sequence (Q5S007 whole entry G2019S)": "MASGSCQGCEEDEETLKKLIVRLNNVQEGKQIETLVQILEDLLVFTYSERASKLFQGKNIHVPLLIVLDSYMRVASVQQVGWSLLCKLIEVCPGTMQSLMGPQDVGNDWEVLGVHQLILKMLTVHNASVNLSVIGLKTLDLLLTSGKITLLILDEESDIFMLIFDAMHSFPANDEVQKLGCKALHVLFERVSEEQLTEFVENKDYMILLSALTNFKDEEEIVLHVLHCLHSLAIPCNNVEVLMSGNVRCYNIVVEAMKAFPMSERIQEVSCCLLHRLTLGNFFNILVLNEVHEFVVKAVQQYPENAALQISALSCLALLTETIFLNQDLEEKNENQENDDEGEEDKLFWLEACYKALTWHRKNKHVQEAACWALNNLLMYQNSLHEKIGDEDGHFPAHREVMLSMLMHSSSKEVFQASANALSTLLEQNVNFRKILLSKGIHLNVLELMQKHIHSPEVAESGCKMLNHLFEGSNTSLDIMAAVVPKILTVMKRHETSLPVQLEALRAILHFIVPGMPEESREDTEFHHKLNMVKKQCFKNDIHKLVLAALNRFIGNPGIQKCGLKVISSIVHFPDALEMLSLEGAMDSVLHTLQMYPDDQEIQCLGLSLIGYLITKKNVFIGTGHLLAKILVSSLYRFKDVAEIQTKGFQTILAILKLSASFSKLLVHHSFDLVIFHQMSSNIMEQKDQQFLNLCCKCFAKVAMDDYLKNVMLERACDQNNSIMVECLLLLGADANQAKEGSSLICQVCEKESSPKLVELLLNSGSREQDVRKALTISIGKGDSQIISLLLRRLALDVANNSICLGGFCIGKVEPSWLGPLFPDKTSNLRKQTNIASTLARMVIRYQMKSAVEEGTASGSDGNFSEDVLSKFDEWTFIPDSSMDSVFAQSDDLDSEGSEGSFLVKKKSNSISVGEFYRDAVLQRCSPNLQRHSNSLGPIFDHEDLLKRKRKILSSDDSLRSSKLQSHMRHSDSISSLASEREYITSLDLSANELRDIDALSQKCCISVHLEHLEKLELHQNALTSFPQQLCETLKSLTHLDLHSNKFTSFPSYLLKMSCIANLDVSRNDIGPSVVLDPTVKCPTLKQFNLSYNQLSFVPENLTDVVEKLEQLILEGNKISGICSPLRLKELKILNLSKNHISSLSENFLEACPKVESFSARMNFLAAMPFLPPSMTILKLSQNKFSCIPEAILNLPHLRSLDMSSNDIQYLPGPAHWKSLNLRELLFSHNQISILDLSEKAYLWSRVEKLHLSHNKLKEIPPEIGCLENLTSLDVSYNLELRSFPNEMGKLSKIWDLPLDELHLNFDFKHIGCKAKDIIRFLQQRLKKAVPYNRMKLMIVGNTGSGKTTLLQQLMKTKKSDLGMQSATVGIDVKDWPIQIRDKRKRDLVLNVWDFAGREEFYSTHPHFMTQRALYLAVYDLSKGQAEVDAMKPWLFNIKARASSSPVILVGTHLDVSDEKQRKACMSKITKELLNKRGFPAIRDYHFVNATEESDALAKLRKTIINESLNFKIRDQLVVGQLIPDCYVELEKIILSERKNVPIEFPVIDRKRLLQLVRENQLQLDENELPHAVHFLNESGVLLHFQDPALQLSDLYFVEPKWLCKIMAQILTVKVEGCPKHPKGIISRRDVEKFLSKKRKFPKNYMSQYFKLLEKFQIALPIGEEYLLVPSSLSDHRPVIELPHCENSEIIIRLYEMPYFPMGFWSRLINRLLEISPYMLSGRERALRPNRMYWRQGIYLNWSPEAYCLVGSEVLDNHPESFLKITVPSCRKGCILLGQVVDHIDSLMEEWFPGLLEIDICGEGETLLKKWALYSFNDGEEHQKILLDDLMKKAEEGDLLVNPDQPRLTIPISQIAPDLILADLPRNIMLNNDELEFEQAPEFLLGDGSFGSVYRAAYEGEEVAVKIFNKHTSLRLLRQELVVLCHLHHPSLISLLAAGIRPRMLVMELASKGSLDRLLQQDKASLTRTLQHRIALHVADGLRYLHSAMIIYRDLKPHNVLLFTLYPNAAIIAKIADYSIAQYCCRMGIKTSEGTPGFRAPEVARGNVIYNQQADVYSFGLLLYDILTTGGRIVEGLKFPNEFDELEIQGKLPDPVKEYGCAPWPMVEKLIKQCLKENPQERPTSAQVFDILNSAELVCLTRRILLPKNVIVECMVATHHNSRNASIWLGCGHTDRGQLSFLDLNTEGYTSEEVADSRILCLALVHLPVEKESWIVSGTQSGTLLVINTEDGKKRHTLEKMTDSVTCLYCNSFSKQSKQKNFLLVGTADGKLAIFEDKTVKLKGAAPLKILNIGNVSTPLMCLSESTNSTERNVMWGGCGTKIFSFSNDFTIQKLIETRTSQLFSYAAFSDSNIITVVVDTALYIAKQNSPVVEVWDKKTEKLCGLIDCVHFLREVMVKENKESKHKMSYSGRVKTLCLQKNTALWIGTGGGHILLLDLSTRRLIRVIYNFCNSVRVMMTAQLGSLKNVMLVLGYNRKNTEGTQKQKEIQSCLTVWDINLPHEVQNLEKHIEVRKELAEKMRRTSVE", "text": "as §1"}, "[5]": {"molecular_target": "T4, CK2a (Homo sapiens, UniProt P68400)", "T4 construct": "purchased Reaction Biology", "text": "as §1"}, "[6]": {"molecular_target": "T5, c-Kit (D816H) (Homo sapiens, UniProt P10721, D816H)", "T5 construct": "purchased Reaction Biology", "text": "as §1"}, "[7]": {"molecular_target": "T6, MKK7 (MAPK9) (Homo sapiens, UniProt O14733)", "T6 construct": "purchased Reaction Biology", "T6 sequence (O14733 2-419 limits assumed)": "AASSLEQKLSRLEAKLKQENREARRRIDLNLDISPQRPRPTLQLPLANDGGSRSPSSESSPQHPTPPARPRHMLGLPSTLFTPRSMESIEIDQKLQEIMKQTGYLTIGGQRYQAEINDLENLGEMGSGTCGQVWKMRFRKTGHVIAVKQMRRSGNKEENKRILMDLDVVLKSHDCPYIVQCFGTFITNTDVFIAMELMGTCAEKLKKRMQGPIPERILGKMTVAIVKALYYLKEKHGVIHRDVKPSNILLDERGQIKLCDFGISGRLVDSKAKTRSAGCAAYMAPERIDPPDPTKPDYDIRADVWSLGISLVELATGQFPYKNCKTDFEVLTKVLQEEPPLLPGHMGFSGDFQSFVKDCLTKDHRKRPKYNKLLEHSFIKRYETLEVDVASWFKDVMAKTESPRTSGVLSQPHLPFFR", "text": "as §1"}, "[8]": {"molecular_target": "T7, FGR (Homo sapiens, UniProt P09769)", "T7 construct": "purchased Reaction Biology", "T7 sequence (P09769 whole entry)": "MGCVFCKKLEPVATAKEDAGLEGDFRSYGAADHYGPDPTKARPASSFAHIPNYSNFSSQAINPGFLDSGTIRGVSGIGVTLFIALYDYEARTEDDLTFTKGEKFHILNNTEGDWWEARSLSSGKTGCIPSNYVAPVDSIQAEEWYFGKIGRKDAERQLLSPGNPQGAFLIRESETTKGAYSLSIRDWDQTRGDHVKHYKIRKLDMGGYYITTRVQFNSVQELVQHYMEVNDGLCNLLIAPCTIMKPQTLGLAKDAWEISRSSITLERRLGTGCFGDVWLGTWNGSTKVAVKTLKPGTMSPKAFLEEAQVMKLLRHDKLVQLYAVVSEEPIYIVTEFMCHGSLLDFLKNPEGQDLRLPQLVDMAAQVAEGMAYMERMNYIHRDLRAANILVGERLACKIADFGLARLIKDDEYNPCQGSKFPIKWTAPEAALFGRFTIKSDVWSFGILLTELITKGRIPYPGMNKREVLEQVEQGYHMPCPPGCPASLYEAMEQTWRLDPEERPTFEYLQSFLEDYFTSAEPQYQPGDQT", "text": "as §1"}, "[9]": {"molecular_target": "T8, JNK2 (Homo sapiens, UniProt P45984)", "T8 construct": "purchased Reaction Biology", "text": "as §1"}, "[10]": {"molecular_target": "T9, CDK3/cyclin E (Homo sapiens, UniProt Q00526)", "T9 construct": "purchased Reaction Biology", "T9 sequence (Q00526 whole entry)": "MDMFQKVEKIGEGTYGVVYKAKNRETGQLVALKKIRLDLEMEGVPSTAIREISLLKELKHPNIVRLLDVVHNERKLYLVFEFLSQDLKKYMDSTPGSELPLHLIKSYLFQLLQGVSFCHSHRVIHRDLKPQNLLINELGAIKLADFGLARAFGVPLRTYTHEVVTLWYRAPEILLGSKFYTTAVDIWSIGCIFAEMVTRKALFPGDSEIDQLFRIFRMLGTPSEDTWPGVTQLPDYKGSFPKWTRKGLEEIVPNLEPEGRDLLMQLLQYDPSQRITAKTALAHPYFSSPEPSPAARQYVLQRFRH", "T9 sequence (P24864 whole entry partner)": "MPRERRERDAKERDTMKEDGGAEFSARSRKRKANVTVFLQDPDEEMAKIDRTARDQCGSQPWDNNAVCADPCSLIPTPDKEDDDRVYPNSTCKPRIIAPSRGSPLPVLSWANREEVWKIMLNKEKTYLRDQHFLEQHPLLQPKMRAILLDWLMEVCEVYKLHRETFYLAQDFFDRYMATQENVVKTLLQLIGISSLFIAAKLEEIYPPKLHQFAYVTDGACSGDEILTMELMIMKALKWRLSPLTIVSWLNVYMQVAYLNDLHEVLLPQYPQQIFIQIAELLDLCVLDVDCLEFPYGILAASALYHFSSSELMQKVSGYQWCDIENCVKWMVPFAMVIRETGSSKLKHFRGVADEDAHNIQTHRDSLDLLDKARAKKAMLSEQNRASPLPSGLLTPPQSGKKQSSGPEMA", "text": "as §1"}, "[11]": {"molecular_target": "T10, ARK5/NUAK1 (Homo sapiens, UniProt O60285)", "T10 construct": "purchased Reaction Biology", "T10 sequence (O60285 1-661)": "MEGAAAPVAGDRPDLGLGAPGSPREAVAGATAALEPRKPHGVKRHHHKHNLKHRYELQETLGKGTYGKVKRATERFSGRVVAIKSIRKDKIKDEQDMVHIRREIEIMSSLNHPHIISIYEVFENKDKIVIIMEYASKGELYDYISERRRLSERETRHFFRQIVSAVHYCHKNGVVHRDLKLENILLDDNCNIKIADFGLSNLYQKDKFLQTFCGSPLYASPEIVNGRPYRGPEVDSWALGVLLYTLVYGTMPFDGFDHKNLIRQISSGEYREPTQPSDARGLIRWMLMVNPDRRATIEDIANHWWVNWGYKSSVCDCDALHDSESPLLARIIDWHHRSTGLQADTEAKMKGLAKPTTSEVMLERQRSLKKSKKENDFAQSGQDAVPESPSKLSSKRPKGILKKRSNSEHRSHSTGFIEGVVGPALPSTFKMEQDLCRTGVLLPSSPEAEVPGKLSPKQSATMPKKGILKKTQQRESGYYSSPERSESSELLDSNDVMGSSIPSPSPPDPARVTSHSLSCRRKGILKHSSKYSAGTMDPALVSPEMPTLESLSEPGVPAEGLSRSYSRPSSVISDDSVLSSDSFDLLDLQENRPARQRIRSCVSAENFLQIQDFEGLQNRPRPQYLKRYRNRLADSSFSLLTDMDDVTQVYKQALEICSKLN", "text": "as §1"}, "[12]": {"molecular_target": "T11, MELK (Homo sapiens, UniProt Q14680)", "T11 construct": "purchased Reaction Biology", "T11 sequence (Q14680 whole entry)": "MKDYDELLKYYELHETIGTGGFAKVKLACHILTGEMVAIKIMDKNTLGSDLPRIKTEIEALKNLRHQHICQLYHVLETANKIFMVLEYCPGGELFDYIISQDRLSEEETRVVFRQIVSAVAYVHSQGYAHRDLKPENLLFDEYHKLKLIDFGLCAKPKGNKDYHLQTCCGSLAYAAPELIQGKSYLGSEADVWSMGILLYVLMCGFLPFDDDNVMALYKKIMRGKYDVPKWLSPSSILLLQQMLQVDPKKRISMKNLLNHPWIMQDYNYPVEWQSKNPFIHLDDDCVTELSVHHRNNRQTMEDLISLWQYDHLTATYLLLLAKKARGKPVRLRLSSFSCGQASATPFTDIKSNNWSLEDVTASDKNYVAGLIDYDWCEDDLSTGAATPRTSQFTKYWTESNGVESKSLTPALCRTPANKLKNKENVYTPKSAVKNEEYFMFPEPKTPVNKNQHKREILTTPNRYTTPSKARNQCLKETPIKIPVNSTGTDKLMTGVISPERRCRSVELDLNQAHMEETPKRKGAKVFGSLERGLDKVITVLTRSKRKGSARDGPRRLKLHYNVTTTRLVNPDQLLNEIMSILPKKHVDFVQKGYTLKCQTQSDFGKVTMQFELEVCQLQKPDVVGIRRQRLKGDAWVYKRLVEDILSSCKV", "text": "as §1"}, "[13]": {"molecular_target": "T12, PKCtheta (Homo sapiens, UniProt Q04759)", "T12 construct": "purchased Reaction Biology", "text": "as §1"}, "[14]": {"molecular_target": "T13, Aurora B (Homo sapiens, UniProt Q96GD4)", "T13 construct": "purchased Reaction Biology", "text": "as §1"}, "[15]": {"molecular_target": "T14, CAMK1d (Homo sapiens, UniProt Q8IU85)", "T14 construct": "purchased Reaction Biology", "text": "as §1"}, "[16]": {"molecular_target": "T15, STK32B/YANK2 (Homo sapiens, UniProt Q9NY57)", "T15 construct": "purchased Reaction Biology", "T15 sequence (Q9NY57 whole entry)": "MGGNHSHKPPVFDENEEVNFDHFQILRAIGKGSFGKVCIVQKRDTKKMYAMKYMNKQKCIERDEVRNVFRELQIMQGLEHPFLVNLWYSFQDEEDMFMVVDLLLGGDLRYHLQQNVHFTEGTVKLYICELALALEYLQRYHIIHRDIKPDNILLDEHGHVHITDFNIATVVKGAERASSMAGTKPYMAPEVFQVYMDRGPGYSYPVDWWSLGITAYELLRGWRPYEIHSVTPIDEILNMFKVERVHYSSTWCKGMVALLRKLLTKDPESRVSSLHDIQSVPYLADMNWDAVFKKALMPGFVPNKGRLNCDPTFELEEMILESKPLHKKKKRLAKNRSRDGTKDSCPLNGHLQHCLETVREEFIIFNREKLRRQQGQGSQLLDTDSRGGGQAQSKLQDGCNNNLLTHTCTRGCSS", "text": "as §1"}, "[17]": {"tested_on": "ALK-TFG", "text": "as §1"}, "[18]": {"settings": "DOH (50 µM), Data 1 and Data 2, read-out: % Enzyme Activity (relative to DMSO controls)"}}, "note": "Where “and” joins values, the source holds several entries; their conditions need not be identical. Identical values can stand only once.", "data": [{"smiles": "CC1(C)Oc2cc3oc(=O)ccc3cc2C[C@@H]1O", "note": "[DOH, decursinol]", "values": [{"measurement": "inhibition at 50 µM", "setting": "[1]; DOH 50 µM", "result": 30.7, "unit": "%"}, {"measurement": "% Enzyme Activity (relative to DMSO controls)", "setting": "[1]; DOH (50 µM), Data 1 and Data 2", "result": 69.0, "unit": "%"}, {"measurement": "remaining activity at 50 µM", "setting": "[1]; [18]", "result": 69.5, "unit": "%"}, {"measurement": "inhibition at 50 µM", "setting": "[2]; DOH 50 µM", "result": 38.5, "unit": "%"}, {"measurement": "% Enzyme Activity (relative to DMSO controls)", "setting": "[2]; DOH (50 µM), Data 1 and Data 2", "result": 58.4, "unit": "%"}, {"measurement": "remaining activity at 50 µM", "setting": "[2]; [18]", "result": 64.5, "unit": "%"}, {"measurement": "DOH % Inhibition", "setting": "[3]; DOH 50 µM", "result": 27.6, "unit": "%"}, {"measurement": "% Enzyme Activity (relative to DMSO controls)", "setting": "[3]; DOH (50 µM), Data 1 and Data 2", "result": "72.6% and 72.4%"}, {"measurement": "inhibition at 50 µM", "setting": "[4]; DOH 50 µM", "result": 26.8, "unit": "%"}, {"measurement": "% Enzyme Activity (relative to DMSO controls)", "setting": "[4]; DOH (50 µM), Data 1 and Data 2", "result": 73.0, "unit": "%"}, {"measurement": "remaining activity at 50 µM", "setting": "[4]; [18]", "result": 73.4, "unit": "%"}, {"measurement": "inhibition at 50 µM", "setting": "[5]; DOH 50 µM", "result": 33, "unit": "%"}, {"measurement": "% Enzyme Activity (relative to DMSO controls)", "setting": "[5]; DOH (50 µM), Data 1 and Data 2", "result": 66.2, "unit": "%"}, {"measurement": "remaining activity at 50 µM", "setting": "[5]; [18]", "result": 67.8, "unit": "%"}, {"measurement": "inhibition at 50 µM", "setting": "[6]; DOH 50 µM", "result": 25.5, "unit": "%"}, {"measurement": "% Enzyme Activity (relative to DMSO controls)", "setting": "[6]; DOH (50 µM), Data 1 and Data 2", "result": 66.8, "unit": "%"}, {"measurement": "remaining activity at 50 µM", "setting": "[6]; [18]", "result": 82.2, "unit": "%"}, {"measurement": "inhibition at 50 µM", "setting": "[7]; DOH 50 µM", "result": 36.5, "unit": "%"}, {"measurement": "% Enzyme Activity (relative to DMSO controls)", "setting": "[7]; DOH (50 µM), Data 1 and Data 2", "result": 61.2, "unit": "%"}, {"measurement": "remaining activity at 50 µM", "setting": "[7]; [18]", "result": 65.9, "unit": "%"}, {"measurement": "inhibition at 50 µM", "setting": "[8]; DOH 50 µM", "result": 34.8, "unit": "%"}, {"measurement": "% Enzyme Activity (relative to DMSO controls)", "setting": "[8]; DOH (50 µM), Data 1 and Data 2", "result": 64.8, "unit": "%"}, {"measurement": "remaining activity at 50 µM", "setting": "[8]; [18]", "result": 65.6, "unit": "%"}, {"measurement": "inhibition at 50 µM", "setting": "[9]; DOH 50 µM", "result": 29, "unit": "%"}, {"measurement": "% Enzyme Activity (relative to DMSO controls)", "setting": "[9]; DOH (50 µM), Data 1 and Data 2", "result": 70.1, "unit": "%"}, {"measurement": "remaining activity at 50 µM", "setting": "[9]; [18]", "result": 72, "unit": "%"}, {"measurement": "inhibition at 50 µM", "setting": "[10]; DOH 50 µM", "result": 30.3, "unit": "%"}, {"measurement": "% Enzyme Activity (relative to DMSO controls)", "setting": "[10]; DOH (50 µM), Data 1 and Data 2", "result": 69.4, "unit": "%"}, {"measurement": "remaining activity at 50 µM", "setting": "[10]; [18]", "result": 70, "unit": "%"}, {"measurement": "inhibition at 50 µM", "setting": "[11]; DOH 50 µM", "result": 27.4, "unit": "%"}, {"measurement": "% Enzyme Activity (relative to DMSO controls)", "setting": "[11]; DOH (50 µM), Data 1 and Data 2", "result": 72.5, "unit": "%"}, {"measurement": "remaining activity at 50 µM", "setting": "[11]; [18]", "result": 72.6, "unit": "%"}, {"measurement": "inhibition at 50 µM", "setting": "[12]; DOH 50 µM", "result": 35.2, "unit": "%"}, {"measurement": "% Enzyme Activity (relative to DMSO controls)", "setting": "[12]; DOH (50 µM), Data 1 and Data 2", "result": 64.6, "unit": "%"}, {"measurement": "remaining activity at 50 µM", "setting": "[12]; [18]", "result": 65, "unit": "%"}, {"measurement": "inhibition at 50 µM", "setting": "[13]; DOH 50 µM", "result": 30.1, "unit": "%"}, {"measurement": "% Enzyme Activity (relative to DMSO controls)", "setting": "[13]; DOH (50 µM), Data 1 and Data 2", "result": 69.2, "unit": "%"}, {"measurement": "remaining activity at 50 µM", "setting": "[13]; [18]", "result": 70.5, "unit": "%"}, {"measurement": "inhibition at 50 µM", "setting": "[14]; DOH 50 µM", "result": 36.2, "unit": "%"}, {"measurement": "% Enzyme Activity (relative to DMSO controls)", "setting": "[14]; DOH (50 µM), Data 1 and Data 2", "result": 63.7, "unit": "%"}, {"measurement": "remaining activity at 50 µM", "setting": "[14]; [18]", "result": 64, "unit": "%"}, {"measurement": "inhibition at 50 µM", "setting": "[15]; DOH 50 µM", "result": 27.1, "unit": "%"}, {"measurement": "% Enzyme Activity (relative to DMSO controls)", "setting": "[15]; DOH (50 µM), Data 1 and Data 2", "result": 70.6, "unit": "%"}, {"measurement": "remaining activity at 50 µM", "setting": "[15]; [18]", "result": 75.3, "unit": "%"}, {"measurement": "inhibition at 50 µM", "setting": "[16]; DOH 50 µM", "result": 31.1, "unit": "%"}, {"measurement": "% Enzyme Activity (relative to DMSO controls)", "setting": "[16]; DOH (50 µM), Data 1 and Data 2", "result": 67.4, "unit": "%"}, {"measurement": "remaining activity at 50 µM", "setting": "[16]; [18]", "result": 70.3, "unit": "%"}, {"measurement": "DOH % Inhibition", "setting": "[17]; DOH 50 µM", "result": 27.9, "unit": "%"}, {"measurement": "% Enzyme Activity (relative to DMSO controls)", "setting": "[17]; DOH (50 µM), Data 1 and Data 2", "result": "75.7% and 68.5%"}]}]}
